Experimental data published in US7348401B2, “Peptides that inhibit complement activation” (priority 2003, dated 2008).
Where two headings read alike, the source gives them in different places.

Columns and labels:
classical pathway = assay: Classical pathway component assay (immune complex, ELISA for C5a, SC5b-9, C3a); type: biochemical, human; settings: immune complex-classical pathway assay, compared with Peptide 7
Experimental: The inhibition of the classical pathway by the peptides was measured by incubating human plasma in the presence and absence of peptides with an immune complex generated on a surface and then monitoring for the production of complement components C5a, SC5b-9, and C3a. To generate the immune complex, a 10 mg/mL solution of BSA in PBS was incubated at 56° C. for 30 minutes and then used to coat the surface of a microplate by diluting to 50 μg/mL at pH 9.6 and incubating for one hour at 37° C. The plate was washed and then incubated with 18 μg/mL mouse anti-BSA IgG2a (Sigma) for one hour at 37° C. Pooled human plasma with and without various concentrations of peptide were incubated for 30 minutes at 37° C. with the generated immune complex and the reaction was stopped with the addition of EDTA. The plasma samples were then analyzed with commercially available ELISA's for the production of C5a (Pharmingen), SC5b-9 (Quidel), and C3a (Quidel).

[1] = tested on: classical pathway; antibody sensitized sheep erythrocyte cells; assay: Classical pathway hemolytic assay (RBC hemolysis assay); type: cell-based, human
Experimental: Inhibition of the classical pathway by the peptides was measured using a standard hemolysis assay, which monitors the lysis of sheep erythrocytes as a result of terminal complex formation (see e.g. FIG. 1, FIG. 10). Various concentrations of peptide were incubated with 50 μL pooled human plasma (diluted 1:30 with GVB^++), 5×10^7 antibody sensitized sheep erythrocyte cells, and GVB^++ buffer to a final volume of 200 μL. The reaction was incubated at 37° C. for one hour and centrifuged. The percentage of lysis was determined by measuring the optical density of the supernatant at 414 nm. 100% lysis was determined by the optical density at 414 nm of the supernatant from a control sample consisting of 5×10^7 antibody sensitized sheep erythrocyte cells in water. The percent inhibition was calculated as the (% lysisno peptide−% lysispeptide)/% lysisno peptide×100.

“18: Peptide 7 with alanine substituted for a residue L on the amino-terminal side of the consensus sequence (SFNDALWRWEWP; complement inhibitor) [Peptide 18]” was tested, and the “complement inhibiting activity (C5a and SC5b-9 production), alanine scan of Peptide 7” value (shortened to “complement inhibiting activity”) (classical pathway) was “slightly greater inhibitory activity”.
With “19: Peptide 7 with alanine substituted for a residue L on the amino-terminal side of the consensus sequence (SFNDLAWRWEWP; complement inhibitor) [Peptide 19]” the “complement inhibiting activity” value (classical pathway) was “slightly greater inhibitory activity”.
With “20: Peptide 7 with alanine substituted for residue W on the amino-terminal side of the consensus sequence (SFNDLLARWEWP; complement inhibitor) [Peptide 20]” the “complement inhibiting activity” value (classical pathway) was “slightly greater inhibitory activity”.
With “112: Peptide 46 with a tri-peptide substituted for X1, third amino acid glutamic acid (EAEVRWEFPL; complement inhibitor) [Peptide 112]” the “inhibitory activity in RBC hemolysis assay compared with parent peptide” value [1] was “enhanced the levels of inhibitory activity”.
“115: Peptide 46 with a tri-peptide substituted for X1, third amino acid glutamic acid (LAEVRWEFPL; complement inhibitor) [Peptide 115]” was tested, and the “inhibitory activity in RBC hemolysis assay compared with parent peptide” value [1] was “enhanced the levels of inhibitory activity”.
For “119: Peptide 46 with a tri-peptide substituted for X1, third amino acid glutamic acid (TTEVRWEFPL; complement inhibitor) [Peptide 119]”, the “inhibitory activity in RBC hemolysis assay compared with parent peptide” value [1] was “enhanced the levels of inhibitory activity”.
“120: Peptide 46 with a tri-peptide substituted for X1, third amino acid glutamic acid (TLEVRWEFPL; complement inhibitor) [Peptide 120]” was tested, and the “inhibitory activity in RBC hemolysis assay compared with parent peptide” value [1] was “enhanced the levels of inhibitory activity”.
With “Peptide 46: 10-mer: Peptide 13 with the two residues removed from the carboxyl terminus (TQDNRWEFPL; complement inhibitor)” the “inhibitory activity in RBC hemolysis assay compared with parent peptide” value [1] was “appears to increase the activity”.
In the case of “Peptide 50: eight-mer: Peptide 13 with two amino acids removed from both ends (DNRWEFPL; complement inhibitor)”, the “original activity retained in RBC hemolysis assay” value ([1]; relative to Peptide 13) is reported as 100%.
“Peptide 53: Peptide 50 with glutamic acid substituted for the aspartic acid at position 1 (ENRWEFPL; complement inhibitor)” was tested, and the “inhibitory activity in RBC hemolysis assay compared with parent peptide” value [1] was “appeared to increase the inhibitory activity”.
For “Peptide 54: Peptide 50 with asparagine substituted for the aspartic acid residue (NNRWEFPL; complement inhibitor)”, the “inhibitory activity in RBC hemolysis assay compared with parent peptide” value [1] was “little effect on the inhibitory activity”.
In the case of “Peptide 55: Peptide 50 with arginine at position 3 changed to lysine (DNKWEFPL; complement inhibitor)”, the “inhibitory activity in RBC hemolysis assay compared with parent peptide” value [1] is reported as “lowers the inhibiting activity”.
“Peptide 56: Peptide 50 with arginine at position 3 changed to histidine (DNHWEFPL; complement inhibitor)” was tested, and the “inhibitory activity in RBC hemolysis assay compared with parent peptide” value [1] was “lowers the inhibiting activity”.
“Peptide 60: Peptide 50 with tryptophan replacing the phenylalanine at X4 (DNRWEWPL; complement inhibitor)” was tested, and the “inhibitory activity in RBC hemolysis assay compared with parent peptide” value [1] was “more severe losses”.
For “Peptide 61: Peptide 50 with tyrosine substituted for the phenylalanine at position 6 (DNRWEYPL; complement inhibitor)”, the “inhibitory activity in RBC hemolysis assay compared with parent peptide” value [1] was “minimal loss of activity”.
“Peptide 64: Peptide 50 with leucine replacing the phenylalanine at X4 (DNRWELPL; complement inhibitor)” was tested, and the “inhibitory activity in RBC hemolysis assay compared with parent peptide” value [1] was “more severe losses”.
For “Peptide 83: Peptide 46 derivative with a glutamic acid at X1; listed in both the X2 and X1 series (AAEVRWEFPL; complement inhibitor)”, the “inhibitory activity in RBC hemolysis assay compared with parent peptide” value [1] was “highest level of inhibitory activity”.
With “Peptide 84: Peptide 46 derivative with a glutamic acid at X1 (TAEVRWEFPL; complement inhibitor)” the “inhibitory activity in RBC hemolysis assay compared with parent peptide” value [1] was “highest level of inhibitory activity” and the “inhibitory activity in RBC hemolysis assay compared with parent peptide” value ([1]; listed as SEQ ID NO 84) was “enhanced the levels of inhibitory activity”.
In the case of “Peptide 90: Peptide 46 derivative with isoleucine at X1 (TAIVRWEFPL; complement inhibitor)”, the “inhibitory activity in RBC hemolysis assay compared with parent peptide” value [1] is reported as “almost comparable activity”.
With “Peptide 91: Peptide 46 derivative with leucine at X1 (TALVRWEFPL; complement inhibitor)” the “inhibitory activity in RBC hemolysis assay compared with parent peptide” value [1] was “almost comparable activity”.
In the case of “Peptide 95: Peptide 46 derivative with proline at X1 (TAPVRWEEPL; complement inhibitor)”, the “inhibitory activity in RBC hemolysis assay compared with parent peptide” value [1] is reported as “almost comparable activity”.
